“Also recorded” adds a separate entry of the source.
Tested on: cord blood CD133 positive cell-derived EPC
Assay: EPC colony assay (methylcellulose medium containing physiologically active substances)
Format: cell-based
Conditions: 1 μM TGF-β inhibitor in serum-free culture medium (compared with 0, 0.1, 10 μM); cultivation for 2 weeks
Protocol: Using the serum-free culture media of the present invention containing various concentrations of TGF-β inhibitor as prepared in Example 1, cord blood CD133 positive cell-derived EPC was expanded in vitro and differentiated. The degree of expansion was evaluated by counting the number of colonies, and the degree of differentiation was evaluated by separately counting the number of colonies of blood lineage cell and that of EPC. For EPC colony, moreover, large cell colonies and small cell colonies were separately counted, as well as the total number of EPC colonies was counted.
The cord blood-derived mononuclear cells were collected and cultivated in a serum-free culture medium in the same manner as in Example 1. […]
The number of colonies confirmed to be the EPC colonies was counted. The total number of colonies, the number of small cell colonies and the number of large cell colonies were separately counted.
For the blood lineage colony, the number of colonies of four kinds of colonies: erythroid burst-forming unit colony (BFU-E), granulocyte-macrophage lineage colony-forming unit colony (CFU-GM), macrophage colony-forming unit colony (CFU-M) and mixed colony (CFU-GEM) was added, and the appearance frequency thereof was determined over time. […]

Q: With `NC(=O)c1ccc(-c2nc(-c3ccc4c(c3)OCO4)c(-c3ccccn3)[nH]2)cc1` [TGF-β inhibitor, 4-(5-benzo[1.3]dioxol-5-yl-4-pyridin-2-yl-1H-imidazol-2-yl)-benzamide] as the compound, how does the “number of EPC colonies per Dish and total number of EPC colonies” value read?
A: Its value is “at maximum; also recorded: largest number of EPC colonies”.

Source: patent publication US8492148B2, “Method for amplification of endothelial progenitor cell in vitro” (Foundation for Biomedical Research & Innovation, priority 2005, dated 2013)
